Legend:
[1] = molecular target: Histamine H1 receptor (Rattus norvegicus, UniProt P31390); assay: Histamine H1 receptor binding assay (3H-pyrilamine, rat cerebellum membrane); conditions: for inhibition at 10 µM: read-out: H1 Inhibition rate (%); for affinity with H1 (in words): summary of in vitro assay
Procedure: The supernatant was discarded to give pellets, and homogenate F was added again to the pellets for washing. Centrifugation was conducted and repeated 3 times.
(2) 100 μL of membrane preparation was added into each reaction tube.

[2] = molecular target: T1, 5HT2C receptor (Rattus norvegicus, UniProt P08909); assay: 5HT2C receptor binding assay ([3H]-mesulergine, rat striatum membrane); conditions: for inhibition at 10 µM: test compound final concentration 10^−5 M, [3H]-mesulergine, rat striatum membrane, read-out: 5HT2C Inhibition rate (%); for affinity with 5HT2C (in words): summary of in vitro assay
T1 construct: from tissue; host or cells: rat brain striatum
T1 sequence (P08909 33-460): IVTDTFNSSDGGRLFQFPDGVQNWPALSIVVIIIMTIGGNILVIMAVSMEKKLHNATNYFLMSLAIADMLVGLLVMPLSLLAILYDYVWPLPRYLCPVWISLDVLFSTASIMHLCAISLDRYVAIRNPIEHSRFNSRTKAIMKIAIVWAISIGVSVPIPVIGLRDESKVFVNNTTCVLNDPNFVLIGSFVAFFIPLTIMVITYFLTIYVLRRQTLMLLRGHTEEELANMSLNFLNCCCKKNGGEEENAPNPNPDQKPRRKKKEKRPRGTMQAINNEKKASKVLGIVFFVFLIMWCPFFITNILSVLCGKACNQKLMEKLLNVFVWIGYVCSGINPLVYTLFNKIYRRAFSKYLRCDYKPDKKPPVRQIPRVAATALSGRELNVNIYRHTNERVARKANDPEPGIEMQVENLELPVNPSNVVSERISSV
Procedure: Preparation of 5HT2C Membrane
Rats were decapitated on ice. […] Centrifugation was conducted.
(§1) Materials for the Receptor Binding Assay

[3] = system: α1 norepinephrine receptor; assay: α1 norepinephrine receptor binding assay (3H-prazosin, rat cortex membrane); conditions: for α1 Inhibition rate (%): test compound final concentration 10^−5 M, 3H-prazosin, rat cortex membrane; for affinity with α1 (in words): summary of in vitro assay
From the text: Preparation of Receptor Membrane of Norepinephrine
α1 Norepinephrine Receptor Binding Assay

[4] = molecular target: T2, D3 receptor (Homo sapiens, UniProt P35462); assay: D3 receptor assay ([3H]-Spiperone, HEK-293 cells); format: binding; conditions: for inhibition at 10 µM: test compound final concentration 10 μmol/L, [3H]-Spiperone, HEK-293 cells, read-out: D3 Inhibition rate (%); for affinity with D3 (in words): summary of in vitro assay
T2 construct: expressed in transfected cells; host or cells: HEK-293
Procedure: Then the cells were centrifuged at 1000 rpm for 5 min, the supernatant was discarded, and the cell pellets was collected and stored in a −20° C. fridge for reservation. It was re-suspended with Tris-Cl (pH 7.4) when the assay was performed.
Tris was divided into aliquots by Genetimes Technology Inc.
Competitive binding test for receptors: 20 μl of each of the test compounds and 20 μl of the radioactive ligand together with 160 μl of the receptor proteins were added into the reaction tubes, and the final concentrations of the test compound and the positive drug were all 10 μmol/L. After 50 min of incubation in 30° C. water bath, the tubes were immediately moved to ice bath to terminate the reactions. GF/C glass fiber filter papers were used for rapid sucking filtration on a Millipore cell sample collector, 3 ml of elution buffer (50 mM Tris-HCl, PH 7.4) was applied for 3 times, and microwave was applied for 4-5 min for drying. The filter paper was moved into 0.5 ml centrifuge tube, and 500 μl of liposoluble scintillation cocktail was added. The tubes were allowed to stand still for over 30 min in dark, and the intensities of radioactivity were measured by a counter.

[5] = system: D2 receptor; assay: D2 receptor binding assay (3H-Spiperone, rat striatum membrane); conditions: for D2 Inhibition rate (%): test compound final concentration 10^−5 M, 3H-Spiperone, rat striatum membrane; for affinity with D2 (in words): summary of in vitro assay
Procedure: Preparation of D2 Membrane
Rats were decapitated on ice. […] The weight of the homogenized tubes were adjusted using a balance, and centrifugation was conducted. […] Centrifugation was conducted.
as §1

[6] = molecular target: T3, 5HT1A receptor (Rattus norvegicus, UniProt P19327); assay: 5HT1A receptor binding assay (3H-8-OH-DPAT, rat striatum membrane); conditions: for inhibition at 10 µM: test compound final concentration 10^−5 M, 3H-8-OH-DPAT, rat striatum membrane, read-out: 5HT1A Inhibition rate (%); for affinity with 5HT1A (in words): summary of in vitro assay
T3 construct: Rats were decapitated on ice; from tissue; host or cells: rat brain striatum
T3 sequence (P19327 1-422): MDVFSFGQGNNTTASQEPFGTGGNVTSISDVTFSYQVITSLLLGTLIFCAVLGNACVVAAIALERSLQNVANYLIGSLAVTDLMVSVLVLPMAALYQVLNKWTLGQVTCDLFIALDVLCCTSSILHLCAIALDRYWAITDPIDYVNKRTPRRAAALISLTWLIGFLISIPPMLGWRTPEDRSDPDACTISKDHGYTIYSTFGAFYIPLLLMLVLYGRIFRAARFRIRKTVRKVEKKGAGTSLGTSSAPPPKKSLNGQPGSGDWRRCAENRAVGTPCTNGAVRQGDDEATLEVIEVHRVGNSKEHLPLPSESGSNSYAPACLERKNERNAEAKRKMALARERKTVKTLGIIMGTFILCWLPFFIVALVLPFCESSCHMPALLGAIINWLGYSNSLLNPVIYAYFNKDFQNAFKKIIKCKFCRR
Procedure: Preparation of 5HT1A Membrane
Rats were decapitated on ice. […] Incubation at 37° C. was conducted for 10 min. […] Centrifugation was conducted at 12000 rpm, 4° C. for 20 min. […] Centrifugation was conducted and repeated 3 times.
as §1

[7] = molecular target: 5HT2A receptor (Rattus norvegicus, UniProt P14842); assay: 5HT2A receptor binding assay ([3H]-Ketanserin, rat striatum membrane); conditions: for inhibition at 10 µM: read-out: 5HT2A Inhibition rate (%); for affinity with 5HT2A (in words): summary of in vitro assay
Chain of 5HT2A receptor (P14842 whole entry): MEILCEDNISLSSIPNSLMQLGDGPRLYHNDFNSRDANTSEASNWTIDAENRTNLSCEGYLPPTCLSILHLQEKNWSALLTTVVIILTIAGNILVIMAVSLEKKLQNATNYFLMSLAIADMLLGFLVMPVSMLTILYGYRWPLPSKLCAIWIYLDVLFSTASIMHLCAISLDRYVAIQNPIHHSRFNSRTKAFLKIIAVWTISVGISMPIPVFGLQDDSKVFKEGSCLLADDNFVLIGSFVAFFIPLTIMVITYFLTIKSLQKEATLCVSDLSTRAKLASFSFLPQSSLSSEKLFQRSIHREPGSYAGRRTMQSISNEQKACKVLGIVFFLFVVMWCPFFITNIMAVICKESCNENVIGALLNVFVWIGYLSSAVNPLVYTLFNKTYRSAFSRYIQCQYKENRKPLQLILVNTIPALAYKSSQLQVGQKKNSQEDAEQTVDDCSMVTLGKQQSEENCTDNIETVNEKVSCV

Chain of Histamine H1 receptor (P31390 whole entry): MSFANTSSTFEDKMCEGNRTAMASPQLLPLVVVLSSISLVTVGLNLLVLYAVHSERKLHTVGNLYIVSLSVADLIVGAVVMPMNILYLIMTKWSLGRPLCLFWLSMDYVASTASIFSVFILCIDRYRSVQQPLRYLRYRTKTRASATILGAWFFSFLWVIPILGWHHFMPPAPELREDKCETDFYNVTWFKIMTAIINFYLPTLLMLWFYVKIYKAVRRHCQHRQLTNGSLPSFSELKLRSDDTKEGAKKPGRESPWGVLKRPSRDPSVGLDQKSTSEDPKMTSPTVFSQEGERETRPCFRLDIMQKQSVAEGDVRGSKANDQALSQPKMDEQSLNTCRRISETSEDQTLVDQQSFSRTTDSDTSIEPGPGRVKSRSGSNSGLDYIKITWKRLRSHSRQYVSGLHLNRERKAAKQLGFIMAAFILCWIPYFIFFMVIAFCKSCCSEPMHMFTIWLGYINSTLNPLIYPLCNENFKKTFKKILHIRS
T2 sequence (P35462 whole entry): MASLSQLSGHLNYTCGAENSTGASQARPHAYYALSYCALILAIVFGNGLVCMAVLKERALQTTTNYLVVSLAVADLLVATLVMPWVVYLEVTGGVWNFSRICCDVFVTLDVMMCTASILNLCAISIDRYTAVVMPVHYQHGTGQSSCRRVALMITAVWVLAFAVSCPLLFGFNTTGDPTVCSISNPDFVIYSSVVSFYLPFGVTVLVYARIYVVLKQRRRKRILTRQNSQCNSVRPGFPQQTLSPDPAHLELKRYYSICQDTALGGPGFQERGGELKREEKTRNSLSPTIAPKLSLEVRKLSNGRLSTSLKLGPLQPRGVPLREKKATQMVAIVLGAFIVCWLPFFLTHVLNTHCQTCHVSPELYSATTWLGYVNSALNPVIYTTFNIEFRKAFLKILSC

O=C(CCCN1CCC(c2noc3cc(F)ccc23)CC1)c1cc2c3c(c1F)CCN3C(=O)CC2 [Compound 21]
inhibition at 10 µM [1]: 54.3%
inhibition at 10 µM [2]: 67.9%
α1 Inhibition rate (%) [3]: 46.78%
inhibition at 10 µM [4]: 90.1%
D2 Inhibition rate (%) [5]: 92.01%
inhibition at 10 µM [6]: 93.3%
inhibition at 10 µM [7]: 91.1%

O=C1CCc2cc(C(O)CCN3CCC(c4noc5cc(F)ccc45)CC3)cc3c2N1CC3 (stereo not shown) [Compound 13]
inhibition at 10 µM [1]: 46.9%
affinity with H1 (in words) [1]: low affinities
affinity with 5HT2C (in words) [2]: low affinities
inhibition at 10 µM [2]: 53.6%
affinity with α1 (in words) [3]: low affinities
α1 Inhibition rate (%) [3]: 53.75%
affinity with D3 (in words) [4]: high affinities
inhibition at 10 µM [4]: 94.4%
affinity with D2 (in words) [5]: high affinities
D2 Inhibition rate (%) [5]: 96.83%
affinity with 5HT1A (in words) [6]: high affinities
inhibition at 10 µM [6]: 93.6%
inhibition at 10 µM [7]: 96.9%
affinity with 5HT2A (in words) [7]: high affinities

O=C1CCc2cc(CCCCCN3CCC(c4noc5cc(F)ccc45)CC3)cc3c2N1CC3 [Compound 20]
inhibition at 10 µM [1]: 49.3%
inhibition at 10 µM [2]: 53%
α1 Inhibition rate (%) [3]: 68.86%
inhibition at 10 µM [4]: 93.2%
D2 Inhibition rate (%) [5]: 83.23%
inhibition at 10 µM [6]: 83%
inhibition at 10 µM [7]: 80.3%

O=C1CCc2cc(C(O)CCCN3CCC(c4noc5cc(F)ccc45)CC3)cc3c2N1CCC3 (stereo not shown) [Compound 6]
inhibition at 10 µM [1]: 49.1%
affinity with H1 (in words) [1]: low affinities
affinity with 5HT2C (in words) [2]: low affinities
inhibition at 10 µM [2]: 61.6%
affinity with α1 (in words) [3]: low affinities
α1 Inhibition rate (%) [3]: 60.91%
affinity with D3 (in words) [4]: high affinities
inhibition at 10 µM [4]: 98.5%
affinity with D2 (in words) [5]: high affinities
D2 Inhibition rate (%) [5]: 98.48%
affinity with 5HT1A (in words) [6]: high affinities
inhibition at 10 µM [6]: 99.6%
inhibition at 10 µM [7]: 99.1%
affinity with 5HT2A (in words) [7]: high affinities

O=C1CCc2cc(CCCCN3CCC(c4noc5cc(F)ccc45)CC3)cc3c2N1CC3 [Compound 17]
inhibition at 10 µM [1]: 35.4%
affinity with H1 (in words) [1]: low affinities
affinity with 5HT2C (in words) [2]: low affinities
inhibition at 10 µM [2]: 51.1%
affinity with α1 (in words) [3]: low affinities
α1 Inhibition rate (%) [3]: 46.62%
affinity with D3 (in words) [4]: high affinities
inhibition at 10 µM [4]: 96.2%
affinity with D2 (in words) [5]: high affinities
D2 Inhibition rate (%) [5]: 99.17%
affinity with 5HT1A (in words) [6]: high affinities
inhibition at 10 µM [6]: 99.1%
inhibition at 10 µM [7]: 99.4%
affinity with 5HT2A (in words) [7]: high affinities

O=C(CCCCN1CCC(c2noc3cc(F)ccc23)CC1)c1cc2c3c(c1)CCN3C(=O)CC2 [Compound 18]
inhibition at 10 µM [1]: 37.8%
inhibition at 10 µM [2]: 54.3%
α1 Inhibition rate (%) [3]: 56.48%
inhibition at 10 µM [4]: 98.1%
D2 Inhibition rate (%) [5]: 88.10%
inhibition at 10 µM [6]: 84.3%
inhibition at 10 µM [7]: 87.8%

O=C(CN1CCC(c2noc3cc(F)ccc23)CC1)c1cc2c3c(c1)CCC(=O)N3CCC2 [Compound 1]
inhibition at 10 µM [1]: 84.9%
inhibition at 10 µM [2]: 84.6%
α1 Inhibition rate (%) [3]: 68.75%
inhibition at 10 µM [4]: 60.9%
D2 Inhibition rate (%) [5]: 45.89%
inhibition at 10 µM [6]: 54.6%
inhibition at 10 µM [7]: 84.9%

O=C1CCc2cc(C(O)CCCCN3CCC(c4noc5cc(F)ccc45)CC3)cc3c2N1CC3 (stereo not shown) [Compound 19]
inhibition at 10 µM [1]: 41.1%
inhibition at 10 µM [2]: 57.1%
α1 Inhibition rate (%) [3]: 52.47%
inhibition at 10 µM [4]: 91.5%
D2 Inhibition rate (%) [5]: 81.45%
inhibition at 10 µM [6]: 87.1%
inhibition at 10 µM [7]: 81.1%

O=C(CN1CCC(c2noc3cc(F)ccc23)CC1)c1cc2c3c(c1)CCN3C(=O)CC2 [Compound 11]
inhibition at 10 µM [1]: 84.9%
inhibition at 10 µM [2]: 84.6%
α1 Inhibition rate (%) [3]: 52.42%
inhibition at 10 µM [4]: 83.5%
D2 Inhibition rate (%) [5]: 55.89%
inhibition at 10 µM [6]: 58.6%
inhibition at 10 µM [7]: 74.9%

O=C1CCc2cc(CCCN3CCC(c4noc5cc(F)ccc45)CC3)cc3c2N1CCC3 [Compound 4]
inhibition at 10 µM [1]: 44%
inhibition at 10 µM [2]: 60%
α1 Inhibition rate (%) [3]: 60.91%
inhibition at 10 µM [4]: 92.5%
D2 Inhibition rate (%) [5]: 94.22%
inhibition at 10 µM [6]: 88%
inhibition at 10 µM [7]: 94%

CC1CC(=O)N2CCCc3cc(C(=O)CCCN4CCC(c5noc6cc(F)ccc56)CC4)cc1c32 (stereo not shown) [Compound 9]
inhibition at 10 µM [1]: 46%
inhibition at 10 µM [2]: 54%
α1 Inhibition rate (%) [3]: 66.62%
inhibition at 10 µM [4]: 86%
D2 Inhibition rate (%) [5]: 91.76%
inhibition at 10 µM [6]: 84%
inhibition at 10 µM [7]: 90.2%

O=C1CCc2cc(C(O)CCN3CCC(c4noc5cc(F)ccc45)CC3)cc3c2N1CCC3 (stereo not shown) [Compound 3]
inhibition at 10 µM [1]: 42.5%
inhibition at 10 µM [2]: 61.6%
α1 Inhibition rate (%) [3]: 51.42%
inhibition at 10 µM [4]: 93.9%
D2 Inhibition rate (%) [5]: 97.67%
inhibition at 10 µM [6]: 91.6%
inhibition at 10 µM [7]: 92.5%

O=C(CCCN1CCC(c2noc3cc(F)ccc23)CC1)c1cc2c3c(c1F)CCC(=O)N3CC2 [Compound 22]
inhibition at 10 µM [1]: 45.2%
inhibition at 10 µM [2]: 76.3%
α1 Inhibition rate (%) [3]: 53.46%
inhibition at 10 µM [4]: 91.2%
D2 Inhibition rate (%) [5]: 93.12%
inhibition at 10 µM [6]: 91.2%
inhibition at 10 µM [7]: 90.2%

Source: US10517862B2, “Fused heterocyclic compound derivative and application thereof” (NHWA PHARMA. CORPORATION, priority 2015, dated 2019)
